Data as given in PubChem BioAssay AID1963973 (Molecular Pharmacology Branch, DTP, NCI, 2024).

Tested on: 883617-216-R-J1-PDC tumor spheroids, viability
Experiment: Anticancer human tumor 883617-216-R-J1-PDC patient-derived bladder carcinoma cell line growth inhibition [PI3K]
Settings: spheroids with HUVEC and MSC; for IC50: curve of first compound; for viability, T/C: stronger effect = lower value
Description: Combinatorial screen of targeted agents with the PI3K inhibitors inavolisib, alpelisib, duvelisib, and copanlisib in multi-cell type tumor spheroids
A high-throughput screen of multi-cell type tumor spheroids was designed to identify active combinations of targeted small molecules and PI3K pathway inhibitors. Complex spheroids include a stromal component modeled by human endothelial cells (HUVEC) and fibroblasts modeled by human mesenchymal stem cells (MSCs). The concentration ranges selected for each drug and investigational agent were based upon clinically achievable concentrations if the clinical Cmax of the agent was known.
Compounds. The drugs and investigational agents: inavolisib (NSC800729), alpelisib (NSC765974), duvelisib (NSC772469), copanlisib (NSC816437), ipatasertib (NSC767898), afuresertib (NSC778305), talazoparib (NSC767125), sapanisertib (NSC764658), selumetinib (NSC741078), tovorafenib (DAY101, NSC766906), vemurafenib (NSC761431), ravoxertinib (NSC781343), sotorasib (NSC818433), MRTX1133 (NSC 836407), abemaciclib (NSC 768073), palbociclib (NSC758247), venetoclax (NSC 766270), SY5609 (NSC837396), enzalutamide (NSC755605), and darolutamide (NSC825331), were obtained from the National Cancer Institute (NCI) Developmental Therapeutics Program Chemical Repository. The FDA-approved anticancer drug set is available from the NCI Developmental Therapeutics Program. […] The stock solutions were prepared in dimethyl sulfoxide (DMSO, Sigma-Aldrich, St. Louis, MO, cat. D2650) at 800-fold the tested concentration and stored at -70 degrees C prior to their use. All drugs and investigational agents were tested over a range starting from a high concentration at or near the clinical Cmax and decreasing in half-log increments. If the clinical Cmax for an agent had not been determined, the highest concentration tested was 10 microM.
Cell Culture. All cells were maintained in an incubator at 37 degrees C and 5% CO2 with 95% humidity. The PDC lines were cultured according to standard operating procedures established by the NCI PDMR (https://pdmr.cancer.gov/sops/default.htm). All PDCs were thawed and cultured in Matrigel-coated flasks prepared with a working solution of 1X Ham's F-12 nutrient mix, without supplementation (Invitrogen, Waltham, MA, cat. 11765054), 100 U/mL penicillin-streptomycin (Invitrogen, cat. 15140122), and 2.5% Matrigel (Corning Inc., Corning, NY, cat. 354248) for the first three passages. The 354836-022-R-J1-PDC, 475296-252-R-J1-PDC, and 997726-040-R-J2-PDC lines were cultured in 6A media, which includes advanced DMEM/F-12 (Thermo Fisher Scientific, cat. 12634028), 10 mM HEPES (Thermo Fisher Scientific, cat. 15630080), 1X GlutaMAX supplement (Thermo Fisher Scientific, cat. 35050061), 0.1 mg/mL primocin (InvivoGen, San Diego, CA, cat. ant-pm-2), 10% defined fetal bovine serum, heat inactivated (HyClone Laboratories Inc., Logan, UT, cat. SH30070.03HI), 50% L-WRN conditioned media (ATCC, cat. CRL-3276), 1.25 mM N-Acetyl-L-cysteine (Sigma-Aldrich, cat. A9165), 10 mM nicotinamide (Sigma-Aldrich, cat. N0636), 1X B-27 supplement (Thermo Fisher Scientific, cat. 17504044), 1X N-2 supplement (Thermo Fisher Scientific, cat. 17502048), and 10 microM Y-27632 dihydrochloride (Tocris Bioscience, Bristol, United Kingdom, cat. 1254). The 624824-186-R-J2-PDC line was cultured in 6C/Colon 1B media, which includes all 6A media components plus 50 ng/mL human EGF recombinant protein (Thermo Fisher Scientific, cat. PHG0311). […]
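Further: spheroids exposed to agents for 7 days before the viability read.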

`CCCS(=O)(=O)Nc1ccc(F)c(C(=O)c2c[nH]c3ncc(-c4ccc(Cl)cc4)cc23)c1F` + CC(Nc1ccc2c(c1)OCCn1cc(N3C(=O)OCC3C(F)F)nc1-2)C(N)=O gave an IC50 (second compound 0.00316 µM) of 4.59 µM, an IC50 (second compound 0.01 µM) of 4.71 µM and an IC50 (second compound 0.0316 µM) of 4.24 µM. For the same molecule, the IC50 (second compound 0.1 µM) was < 0.0316 µM, the IC50 (second compound 0.316 µM) was < 0.0316 µM and the IC50 (second compound 1 µM) was < 0.0316 µM. For the same molecule, the viability, T/C (second compound 0.00316 µM, first compound 0.0316 µM) was 91.2%, the viability, T/C (second compound 0.00316 µM, first compound 0.1 µM) was 90.9% and the viability, T/C (second compound 0.00316 µM, first compound 0.316 µM) was 89%. The viability, T/C (second compound 0.00316 µM, first compound 1 µM) was 100%, the viability, T/C (second compound 0.00316 µM, first compound 3.16 µM) was 70.2% and the viability, T/C (second compound 0.00316 µM, first compound 10 µM) was 8.07%. For the same molecule, the viability, T/C (second compound 0.01 µM, first compound 0.0316 µM) was 87.3%, the viability, T/C (second compound 0.01 µM, first compound 0.1 µM) was 90% and the viability, T/C (second compound 0.01 µM, first compound 0.316 µM) was 89.5%. The viability, T/C (second compound 0.01 µM, first compound 1 µM) was 93.9%, the viability, T/C (second compound 0.01 µM, first compound 3.16 µM) was 70.3% and the viability, T/C (second compound 0.01 µM, first compound 10 µM) was 11.9%. It also gave a viability, T/C (second compound 0.0316 µM, first compound 0.0316 µM) of 68.5%, a viability, T/C (second compound 0.0316 µM, first compound 0.1 µM) of 64.3% and a viability, T/C (second compound 0.0316 µM, first compound 0.316 µM) of 64.4%. For the same molecule, the viability, T/C (second compound 0.0316 µM, first compound 1 µM) was 66.8%, the viability, T/C (second compound 0.0316 µM, first compound 3.16 µM) was 63.7% and the viability, T/C (second compound 0.0316 µM, first compound 10 µM) was 9.98%. For the same molecule, the viability, T/C (second compound 0.1 µM, first compound 0.0316 µM) was 36.1%, the viability, T/C (second compound 0.1 µM, first compound 0.1 µM) was 42.6% and the viability, T/C (second compound 0.1 µM, first compound 0.316 µM) was 43.9%. It also gave a viability, T/C (second compound 0.1 µM, first compound 1 µM) of 48.2%, a viability, T/C (second compound 0.1 µM, first compound 3.16 µM) of 38.7% and a viability, T/C (second compound 0.1 µM, first compound 10 µM) of 12.2%. It also gave a viability, T/C (second compound 0.316 µM, first compound 0.0316 µM) of 29%, a viability, T/C (second compound 0.316 µM, first compound 0.1 µM) of 23.8% and a viability, T/C (second compound 0.316 µM, first compound 0.316 µM) of 28.5%. For the same molecule, the viability, T/C (second compound 0.316 µM, first compound 1 µM) was 28.2%, the viability, T/C (second compound 0.316 µM, first compound 3.16 µM) was 26.6% and the viability, T/C (second compound 0.316 µM, first compound 10 µM) was 11%. For the same molecule, the viability, T/C (second compound 1 µM, first compound 0.0316 µM) was 15.2%, the viability, T/C (second compound 1 µM, first compound 0.1 µM) was 15% and the viability, T/C (second compound 1 µM, first compound 0.316 µM) was 17%. It also gave a viability, T/C (second compound 1 µM, first compound 1 µM) of 23%, a viability, T/C (second compound 1 µM, first compound 3.16 µM) of 20.7% and a viability, T/C (second compound 1 µM, first compound 10 µM) of 8.33%.
